Where “and” joins values, the source holds several entries; their conditions need not be identical. Identical values can stand only once. Like-named read-outs stand apart in the source and are kept apart here. Marks after values point to notes of the source that are not given here.
How the values were obtained:
[1] = 1 mM EDTA + 4 mM BaCl2, HEPES pH 8.5, 25° C.
Protocol: The pH of these solutions was adjusted to 8.5 with 1 M NaOH solution. […] For the competitive binding site experiment, HEPES (20 mM) was used as a buffer solution.
Injection rate for the continuous injection mode is 10 μL/min.
The fit for the continuous injection method was done after 0.1 mM of ligand was injected. […] The positive peaks of the binding isotherms in the raw data (top) represent the exothermic heat of binding.

[2] = Tricine pH 8.5, 25° C.; for ln K1 / ln K2: EDTA/DPTA mixture, 99% CI in parentheses; for ln K: real-time evaluation from data at inflection points, continuous 7.2 μL/min
Protocol: The pH of these solutions was adjusted to 8.5 with 1 M NaOH solution. For the single independent binding site and two independent binding sites experiments, Tricine (20 mM) was used as a buffer solution. For the competitive binding site experiment, HEPES (20 mM) was used as a buffer solution.
The titrations were performed on a NanoITC (TA Instruments, New Castle, Del.) with gold cells with a cell volume of 1 mL. ITC experiments were carried out at 25° C. and the stirring speed was 250 rpm. For the single independent binding experiment, ligand of 20 mM in 100 μL syringe and for the competitive binding site and two independent binding sites model, ligand of 10 mM in 250 μL syringe were used. The injection rate was varied 1.7-10 μL/min for the continuous injection mode under setting tab in ITCRun software. During the equilibration, mass transfer of ligand at the tip of the injection syringe reduces the integrated heat of the first injection. The first data point for the incremental injection mode and data for the initial 10 μL of injection for the continuous injection mode is excluded for data fitting with binding models due to reduced amount of the heat flow.
By changing the concentration of EDTA and DPTA in the mixture, the various binding stoichiometry of the receptor, n and m, were simulated. […] The number of injections for the incremental injection mode experiment is 40 with an injection volume of 6 μL. Injection rate for the continuous injection mode is 7.2 μL/min.
The fit for the continuous injection method was done after 0.05 mM of ligand was injected. […] The positive peaks of the binding isotherms in the raw data (top) represent the exothermic heat of binding.

[3] = for ln K: Tricine pH 8.5, 25° C.
Protocol: The titrations were performed on a NanoITC (TA Instruments, New Castle, Del.) with gold cells with a cell volume of 1 mL. ITC experiments were carried out at 25° C. and the stirring speed was 250 rpm. For the single independent binding experiment, ligand of 20 mM in 100 μL syringe and for the competitive binding site and two independent binding sites model, ligand of 10 mM in 250 μL syringe were used. The injection rate was varied 1.7-10 μL/min for the continuous injection mode under setting tab in ITCRun software. […] The first data point for the incremental injection mode and data for the initial 10 μL of injection for the continuous injection mode is excluded for data fitting with binding models due to reduced amount of the heat flow.
Binding of Ba^2+ and EDTA were performed and analyzed with the single independent binding site model in order to obtain the confidence intervals depending on the number of injections.
The number of injections for the incremental injection experiment was 36 with an injection volume of 2.5 μL. An injection rate of 1.7 μL/min was utilized in the continuous injection experiment. The fit for the continuous injection method was done after 0.1 mM of ligand had been injected.
The experimental time for incremental injection mode experiment was ˜6.5 h (36 injections), while the continuous injection experiment completed within ˜1 h.

avidin [4] = biological target: T1, avidin (Gallus gallus, UniProt P02701); test: Continuous injection ITC, single independent binding of lipoic acid to avidin; conditions: 1 mM lipoic acid, continuous 0.1 mL/h into 25 μM avidin, 25° C., pH 6.6
T1 construct: purchased Sigma-Aldrich
T1 sequence (P02701 25-152): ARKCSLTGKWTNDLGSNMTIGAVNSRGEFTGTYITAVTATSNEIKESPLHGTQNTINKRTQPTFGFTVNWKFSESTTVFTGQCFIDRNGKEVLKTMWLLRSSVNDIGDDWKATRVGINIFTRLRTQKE
Protocol: (§1) The molecular weight of avidin (12.8 units per mg protein) was used as 66000 g/mol. […] […] HEPES (1 mM) was used as the buffer solution.
(§2) The continuous titrations were performed on a VP-ITC (Malvern Instruments, Westborough, Mass.) with a cell volume of 1.4 mL. The incremental titrations were performed on a NanoITC (TA Instruments, Lindon, Utah) with a cell volume of 1 mL. ITC experiments were carried out at 25° C. and the stirring speed was 270 rpm and 250 rpm for the continuous titration and incremental titration, respectively. For manipulating injection rate, a PHD 2000 syringe pump (Harvard Apparatus, Holliston, Mass.) was connected to the injection syringe of the VP-ITC.
Injection rate for the continuous injection mode was 0.1 mL/h. The fit for the continuous injection method was done after 12 μM of ligand was injected. […] Injection rate for the continuous injection mode is 0.1 mL/h. The fit for the continuous injection method was done after […] of ligand was injected.

avidin [5] = biological target: T1, avidin; conditions: reported; pH 6.8; cited from earlier work
avidin [6] = biological target: T1, avidin; test: Continuous injection ITC, binding of desthiobiotin to avidin, single independent binding site model; conditions: 0.5 mM desthiobiotin, continuous 25 μL/h into 12.5 μM avidin, 25° C., pH 7.2
Protocol: as §1, §2

avidin [7] = biological target: T1, avidin; test: Continuous injection ITC, competitive binding of desthiobiotin to avidin mixed with lipoic acid; conditions: pH 6.6
Protocol: as §1, §2
[…] The fit for the continuous injection method was done after 12 μM of ligand was injected. […] […] The fit for the continuous injection method was done after […] of ligand was injected.

[8] = continuous injection 7.2 μL/min
[9] = incremental, 40 injections of 6 μL
[10] = apparent, 12.5 μM avidin mixed with 0.75 mM lipoic acid, 25° C.

O.O.O.O.O=[N+]([O-])[O-].O=[N+]([O-])[O-].[Ca+2] [Ca(NO3)2, Calcium nitrate tetrahydrate]
ln K ([1]; continuous injection 10 μL/min, 99% CI in parentheses): 20.535 (20.52, 20.55) | ln K ([1]; incremental, 20 injections of 10 μL, 99% CI in parentheses): 20.47 (20.3, 20.6) | ln K ([1]; real-time evaluation from data at inflection point, continuous injection 10 μL/min): 20.64 | ln K1 [2, 8]: 18.11 (18.07, 18.15) | ln K2 [2, 8]: 11.27 (11.25, 11.30) | ln K1 [2, 9]: 19.50 (18.98, 20.33) | ln K2 [2, 9]: 11.42 (11.14, 11.69) | ln K ([2]; association of Ca^2+ and DPTA): 12.24^g | ln K ([2]; association of Ca^2+ and EDTA): 18.98^f

[Ba+2].[Cl-].[Cl-] [BaCl2, barium chloride]
K2 ([3]; Ba^2+ and EDTA, obtained independently by incremental injection, input for the competitive model, listed as Ba^2+): 1.36e+06 M⁻¹ | ln K ([3]; continuous injection 1.7 μL/min, 99% confidence interval in parentheses): 14.15 (14.13, 14.16) and 14.11 (14.09, 14.03) and 13.73 (13.71, 13.75) | ln K ([3]; incremental injection, 9 injections, 99% confidence interval in parentheses): 14.26 (13.5, 16.7) and 14.14 (13.0, 16.5) and 13.99 (13.4, 14.6) | ln K ([3]; incremental injection, 18 injections, 99% confidence interval in parentheses): 14.07 (13.6, 14.6) and 14.05 (13.8, 14.5) and 13.88 (13.3, 14.8) | ln K ([3]; incremental injection, 36 injections, 99% confidence interval in parentheses): 14.07 (13.8, 14.4) and 14.13 (13.9, 14.4) and 14.02 (13.8, 14.3) | ln K ([3]; real-time evaluation from data at inflection point, continuous injection 1.7 μL/min): 14.22

O=C(O)CCCCC1CCSS1 (stereo not drawn) [Lipoic acid, α-Lipoic acid]
ΔH1 (avidin [4]): -9.95 kcal/mol | Kd (avidin [4]; read-out: Kd1): 520 nM | Kd (avidin [5]): 700 nM

C[C@@H]1NC(=O)N[C@@H]1CCCCCC(=O)O [desthiobiotin, d-desthiobiotin]
ΔH (avidin [6]): -17.55 kcal/mol | m (avidin [7]; 0.5 mM desthiobiotin, 25 μL/h into 12.5 μM avidin mixed with 0.75 mM lipoic acid, 25° C.): 0.294 | Kd,app (avidin [7]; [10]): 1.04 nM | ΔHapp (avidin [7]; [10]): -9.74 kcal/mol | ΔH (avidin [7]; evaluated by competitive binding method from lipoic acid and apparent parameters): -19.7 kcal/mol

— patent US20160216259A1, “ISOTHERMAL TITRATION CALORIMETRY METHODS FOR EVALUATION OF THERMODYNAMIC BINDING PROPERTIES” (The Penn State Research Foundation, priority 2015, published 2016)
